Earlier results on two compounds are cited in patent US20050048543A1 (priority 2003, published 2005).

Data set [1] has as its system patients with mild to moderate AD. The conditions noted are these: galantamine therapy in patients.

As to `COc1ccc2c3c1O[C@H]1C[C@@H](O)C=C[C@@]31CCN(C)C2` [galantamine], in data set [1], the “most common side effects” value was “nausea, vomiting, diarrhea, dizziness and anorexia”.

As for `Nc1c2c(nc3ccccc13)CCCC2` [tacrine], the “response to treatment in presence of the ApoE4 polymorphism” value in the data set on AD patients was “reduced response to treatment”.
